The source of these data is publication PMC13168289, “Potent acridone antimalarial against all three life stages of Plasmodium” (Nature Communications, 2026).

Like-named read-outs stand apart in the source and are kept apart here.

The subject of series [1] is P. falciparum K13 mutant parasites SP045 and SP060. Description: Growth, Resistance, and Recovery Assay (GRRA), ring-stage survival dose-response. It counts as cell-based, Plasmodium falciparum. Conditions: read-out: GRRA50. As to the method:
These isolates carry the validated R561H Kelch 13 propeller domain mutation associated with delayed parasite clearance in East Africa[24],[25]. Using the 6-hour GRRA[23], all strains were thawed, frozen, and cultured under standard conditions at 5% hematocrit. Samples parasitemia was measured by flow cytometry. Parasite cultures that were predominantly segmented schizonts were synchronized using a single Percoll layer method. Cultures that met quality control requirements of ≥70% early ring stage and ≥1% parasitemia were adjusted to 0.25% parasitemia at 2% hematocrit. […] The GRRA50 implements 11 RSA experiments to generate a dose-response curve for each parasite line per drug. Master mixes of samples were aliquoted into 2 technical replicates of 275 µL each in 96 well plates (2 treated each condition, 2 untreated). At 6 h post-exposure, 200 µL of media was removed from the wells and replaced with 200 µL of incomplete media and spun for 3 min at 800 g to rinse. The rinse was repeated a total of 3 times, after which 200 µL complete media was added back to the wells. At 120 h post-treatment, thin microscopy smears were made using 2 µL of culture for each sample and 20 µL of culture was transferred to PCR strips and stored at −80 °C until qPCR quantification. A standard curve of known parasitemia was generated using the NF54 parasite line for each qPCR quantification for conversion from Cycle threshold (Ct) to parasitemia and comparison between qPCR experiments. Replicate viability was calculated according to the GRRA method. Each individual reaction mixture and cycling conditions were set to previously used methods. Ct was calculated using AB1 SDA 2.4.1. software. […] We find that commonly reported thresholds (cutoffs) for resistance (e.g., 1% survival in traditional RSA) may not be broadly applicable, especially with lower thresholds subject to potential artifacts due to markedly low survival rates of ART-sensitive and low-level ART-resistant parasites. Regular RSA relies on a single drug concentration, 700 nM. To gain a more fine-scale quantification to compare drug susceptibilities with relevance to therapeutic success and failure, we developed the GRRA50 to generate full dose-response curves for precise quantitative comparisons.

For series [2], the system named is Salmonella typhimurium TA98 and TA100. In words: Ames assay. It counts as cell-based. Conditions: 10 µM; TA98 and TA100, with and without S9 activation. As to the method:
Mutagenicity was assessed using the Ames assay[54] (EBPI, Ontario, Canada) against S. typhimurium TA100 and TA98, with and without S9 activation. The tester strain S. typhimurium (TA100 and TA98) cultures were inoculated from the lyophilized pellets and grown in nutrient broth provided by EBPI. Each inoculated vial (5 mL volume with antibiotics) was placed overnight in the incubator at 37 °C. The positive controls for the assay were 1.0 µg/µL 2-aminoanthracene (2-AA) for incubations with the S9 mix and 5 µg/mL sodium azide (NaN3, used for TA100) and 300 µg/mL 2-nitrofluorene (2NF, used for TA98) for incubations without the S9 mix. […] An aliquot (0.2 mL) of the mixture was then added to each well of a 96-well plate. The 96-well plates were covered, sealed in zip-lock bags, and incubated for 5 days at 37 °C. Plates were scored visually, and the positive wells against background mutations were statistically analyzed.
On the technique in general: The Ames test detects mutagens through reverse mutation in bacteria.

For series [3] the following is noted: cited from earlier work.

`O=c1c2ccc(Oc3ccc(OC(F)(F)F)cc3)cc2[nH]c2cc(Cl)cc(F)c12` [T111]: the IC50 in series [1] (SP045 (K13 V555A, ART-S)) was found to be 0.78 nM; in series [1] (SP060 (K13 R561H, ART-R)), 0.87 nM. Moreover, the Ames test result in series [2] is “negative”.
In the case of `O=C1C(O)=C([C@H]2CC[C@H](c3ccc(Cl)cc3)CC2)C(=O)c2ccccc21` [ATV, atovaquone], the T1/2 entry in series [3] (healthy mice, ref PMID: 23292347) is recorded as “about 13 h”. Moreover, in series [3] (mice plasma), the t1/2 is given as ~ 13 h.
